Experimental data taken from patent US10315998B2, “Amide compound and the preparation method and use thereof” (SHENYANG SINOCHEM AGROCHEMICALS R&D CO., LTD, priority 2015, dated 2019).

Columns and labels:
Type in all cases: in vivo
[1] = test system: cucumber downy mildew (Pseudoperonospora cubensis (Berk. et Curt.) Rostov); test: Protective effect against cucumber downy mildew on potted plants; settings: grading 100-0 (100 no infection, 0 most serious infection), read-out: protectant activity against cucumber downy mildew
Experimental: (§1) Fungicidal activity of the compounds in the present invention against many kinds diseases were carried out. The procedure of fungicidal activity determination is as follows:
(§2) The fungicidal activity was tested in vivo manner on the potted plants. The test compounds of the present invention were dissolved in proper solvent (choosing the solvent according their dissolving ability to the compounds, the solvents could be acetone, methanol or N,N-dimethylformide, etc. The volume ratio between solvent and liquid sprayed was equal to or less than 0.05) and dilute with water contain 0.1% Tween 80 to given concentrations. Compounds of present invention was sprayed onto the leaves of seedling according to the designed concentration. Meanwhile, water was set as the blank control, three replicates were set for each treatment, the spore suspension were inoculated on the second day after treatment, then the plants were placed in an artificial climate chamber (temperature: day 25° C., night 20° C., relative humidity 95 to 100%). 24 hours later, the plants were moved to green house to cultivated. The plants which not need to control humidity was inoculated spore suspension in green house and cultivated in green house directly. The results were investigated after the plants were fully infected relative to the blank control (usually one week). The test resluts grading 100-0 refers to the <A Manual of Assessment Keys for Plant Diseases> which edited by American Phytopathological Society. “100” refer to no infection and “0” refer to the most serious infection
Protective effect against cucumber downy mildew (Pseudoperonospora cubensis (Berk. et Curt.) Rostov)
According the test method described above, parallel test were carried out between compounds 2, 4, 11, 13, 71 and 111 of present invention and the known compounds KC1, KC2, KC3, KC4, KC5 and KC6 (The compounds were self-made and the structure was confirmed by ^1H NMR consistent with the description of the procedures).

[2] = test system: cucumber anthracnose (Colletotrichum orbiculare); test: Protective effect against cucumber anthracnose on potted plants; settings: 400 ppm, foliar spray
Experimental: as §1
The fungicidal activity was tested in vivo manner on the potted plants. The test compounds of the present invention were dissolved in proper solvent (choosing the solvent according their dissolving ability to the compounds, the solvents could be acetone, methanol or N,N-dimethylformide, etc. The volume ratio between solvent and liquid sprayed was equal to or less than 0.05) and dilute with water contain 0.1% Tween 80 to given concentrations. Compounds of present invention was sprayed onto the leaves of seedling according to the designed concentration. Meanwhile, water was set as the blank control, three replicates were set for each treatment, the spore suspension were inoculated on the second day after treatment, then the plants were placed in an artificial climate chamber (temperature: day 25° C., night 20° C., relative humidity 95 to 100%). 24 hours later, the plants were moved to green house to cultivated. The plants which not need to control humidity was inoculated spore suspension in green house and cultivated in green house directly. The results were investigated after the plants were fully infected relative to the blank control (usually one week). […]

[3] = test system: corn rust (Puccinia sorghi Schw.); test: Protective effect against corn rust on potted plants; settings: grading 100-0
Experimental: as §1, §2
Protective Effect Against Corn Rust (Puccinia sorghi Schw.):
According the test method described above, parallel test were carried out between compound 13 of present invention and the known compound KC1.
According the test method described above, parallel test were carried out between compound 11 of present invention and the known compound KC2.
According the test method described above, parallel test were carried out between compound 71 of present invention and the known compounds KC5 and KC6.

CCCCC(C)Oc1cccc(NC(=O)c2cn(C)nc2C(C)C)c1C (stereo not shown) [Compound 2]
pest or weed control at 400 ppm [1]: 100%

CCCCC(C)Oc1cccc(NC(=O)c2c(C)nn(C)c2Cl)c1C (stereo not shown) [Compound 4]
protective effect against cucumber anthracnose [2]: ≥ 80%
pest or weed control at 400 ppm [1]: 100%

CCCCC(C)Oc1cccc(NC(=O)c2c(C(F)F)nn(C)c2Cl)c1C (stereo not shown) [Compound 11]
protectant activity against corn rust ([3]; 0.39 ppm, table 4): 100
protectant activity against corn rust ([3]; 1.5625 ppm, table 4): 100
protectant activity against corn rust ([3]; 6.25 ppm, table 4): 100
pest or weed control at 400 ppm [1]: 85%

CCCCC(C)Oc1cccc(NC(=O)c2cn(C)nc2C(F)(F)F)c1C (stereo not shown) [Compound 13]
protectant activity against corn rust ([3]; 6.25 ppm, table 3): 100
protectant activity against corn rust ([3]; 400 ppm, table 3): 100
pest or weed control at 400 ppm [1]: 100%

CCCCC(C)Oc1cccc(NC(=O)c2sc(C)nc2C(F)(F)F)c1C (stereo not shown) [Compound 71]
protectant activity against corn rust ([3]; 1.56 ppm, table 5): 100
protectant activity against corn rust ([3]; 6.25 ppm, table 5): 100
protectant activity against corn rust ([3]; 400 ppm, table 5): 100
pest or weed control at 400 ppm [1]: 100%

CCCC(C)Oc1cccc(NC(=O)c2sc(C(F)(F)F)nc2CC)c1C (stereo not shown) [Compound 111]
pest or weed control at 400 ppm [1]: 100%

Cc1c(NC(=O)c2cn(C)nc2C(F)(F)F)cccc1OC(C)C [KC1, reference compound]
protectant activity against corn rust ([3]; 6.25 ppm, table 3): 50
protectant activity against corn rust ([3]; 400 ppm, table 3): 100
pest or weed control at 400 ppm [1]: 0%

Cc1c(NC(=O)c2c(C(F)(F)F)nn(C)c2Cl)cccc1OC(C)C [KC2, reference compound]
protectant activity against corn rust ([3]; 0.39 ppm, table 4): 0
protectant activity against corn rust ([3]; 1.5625 ppm, table 4): 65
protectant activity against corn rust ([3]; 6.25 ppm, table 4): 100
pest or weed control at 400 ppm [1]: 0%

Cc1nn(C)cc1C(=O)Nc1cccc(OC(C)C)c1C [KC3, reference compound]
pest or weed control at 400 ppm [1]: 0%

Cc1nn(C)c(Cl)c1C(=O)Nc1cccc(OC(C)C)c1C [KC4, reference compound]
pest or weed control at 400 ppm [1]: 0%

Cc1nc(C)c(C(=O)Nc2cccc(OC(C)C)c2)s1 [KC5, reference compound]
pest or weed control at 400 ppm [1]: 0%
